In article PMC11513920, “Building Metabolically Stable and Potent Anti-HIV Thioether-Lipid Analogues of Tenofovir Exalidex: A thorough Pharmacological Analysis” (Journal of Medicinal Chemistry, 2024):
“And” between values parts separate entries of the source, which are not always exact repeats. Equal values may be shown once.

Columns and labels:
[1] = Mouse plasma pharmacokinetics after intravenous dose; type: in vivo, male C57BL/6 mice; conditions: i.v. 3 mg/kg
Experimental: (§1) To compare the in vivo PK profiles to TXL and our previously reported drug lead 1 (Tables S19 and S26),[39] one group of male C57BL/6 mice were administered a single oral dose (p.o., 10 mg/kg) of 2a, 16g, or 16h (refer to Experimental Methods). Additionally, a separate group of mice were given a single intravenous dose (i.v., 3 mg/kg) of each prodrug to obtain plasma clearance (Cl), volume of distribution (Vd), and oral bioavailability data. Blood was sampled at 8 time points over 8 h (i.v.) or 24 h (p.o.) postdose, and plasma was isolated via centrifugation. Tissues (liver, kidney, and brain) were also harvested and homogenized at 3 time points over 24 h after oral dose. The concentrations of prodrug and TFV metabolite in each of these samples was then quantified using LC–MS/MS methodology.
(§2) Healthy male C57BL/6 mice (8–12 weeks old) weighing 20–30 g were procured from Global, India. Three mice were housed in each cage. Temperature and humidity were maintained at 22 ± 3 °C and 30–70%, respectively, and illumination was controlled to provide for 12 h light and 12 h dark cycles. Temperature and humidity were recorded by an autocontrolled data logger system. All animals were provided a laboratory rodent diet (Envigo Research private Ltd., Hyderabad). Reverse osmosis H2O treated with ultraviolet light was provided ad libitum.
(§3) Male mice were divided into two groups (n = 18 total, n = 9 per treatment group, n = 3 per time point, sparse sampling). One group was intravenously administered a solution of 2a, 16g, and 16h in 10% PEG-300, 10% Solutol HS-15, and 80% saline at 3 mg/kg with a dosing volume of 5 mL/kg. The second group was administered a solution of 2a, 16g, and 16h in 10% EtOH and 90% olive oil at 10 mg/kg via oral gavage with a dosing volume of 10 mL/kg.
(§4) Blood samples (approximately 60 μL) were collected from retro-orbital plexus under light isoflurane anesthesia such that the samples were obtained predose, as well as at eight time points post dose: 0.1, 0.25, 0.5, 1, 2, 4, 6, and 8 (i.v.) and 0.25, 0.5, 1, 2, 4, 8, 12, and 24 h (p.o.). Immediately after blood collection, plasma samples were harvested by centrifugation at 4000 rpm and 4 °C for 10 min and stored at −70 °C until LC–MS/MS analysis. Following blood collection from p.o. group, liver, kidney, and brain samples were collected (n = 3 per treatment group per time point) at 1, 4, and 24 h post dose. After isolation, tissue samples were rinsed three times with ice-cold saline and dried with blotting paper. Next, the tissue samples were homogenized using ice-cold PBS (pH = 7.4), and the resulting homogenates were stored below −70 °C until LC-MS/MS analysis. The total homogenate volume was 3 times the brain weight and 5 times the liver and kidney weight.
(§5) Areas under the concentration–time curves (AUC0–8h and AUC0–24h) were calculated via the linear trapezoidal rule[65] using GraphPad Prism v9. Furthermore, terminal elimination rate constants k were determined using linear regression (slope = −k) of the terminal portion of semilog-transformed concentration–time curves (Figures S44, S45, S47, S48, S50, and S51).

[2] = tested on: HepaRG cells; assay: HepaRG cellular metabolic stability
Source text: Naturally, due the metabolic complexity of HepaRG cells, we specifically analyzed prodrug cellular uptake and stability, as represented by Cmax and intrinsic clearance (Clint,u) accordingly (Figure 7 and Table 9).
The HepaRG cell line (HPRGC10, Thermo Fisher Scientific) was used to evaluate the cellular permeability and metabolic stability for select final compounds in vitro. The cells were initially thawed with working media composed of HepaRG Thaw, Plate, & General Purpose Medium Supplement (HPRG670), Williams Medium E (100 mL), and GlutaMax (1 mL), all purchased from Thermo Fisher Scientific. […] After the thawing medium was aspirated from each well, the cells were cultured for an additional 6 days with working media consisting of HepaRG Maintenance/Metabolism Medium Supplement (HPRG720), Williams Medium E (500 mL), and GlutaMax (1 mL), all purchased from Thermo Fisher Scientific. Upon completing the 7-day culture period, HepaRG cells were plated in enough wells to allow for duplicate analysis of prodrugs in two independent cellular uptake or metabolic stability experiments. All studied compounds were formulated with human serum albumin (HSA, 5:1 compound to HSA molar ratio) and subsequently diluted to a 20 μM final concentration with assay medium composed of serum-free INVITROGRO HI Medium and TORPEDO Antibiotic Mix purchased from BioIVT. For cellular uptake determinations, the maintenance/metabolism medium was first aspirated from each well, and then the plated cells were spiked with 1.0 mL of test compound stock solution. Subsequently, the plate was incubated at 37 °C under 5% CO2 environment over the desired time course (seven data points/compound). Blank wells not treated with prodrug were included in assay runs as controls and initial time points (0 min). At each time point, the test compound solution was removed from the appropriate wells, and the plated cells were washed with 1.0 mL of DPBS twice. The HepaRG cells were then extracted with 500 μL of cold ISTD solution (1 μM 7-ethoxy-d5-coumarin in 70/30 MeOH/H2O), and the quenched aliquots were centrifuged at 15,000 g for 10 min at 4 °C. […] After obtaining prodrug Cmax and Tmax values from the cellular uptake assay, HepaRG metabolic stability was then assessed. Following the initial 7-day culture procedure, the maintenance/metabolism medium was aspirated from each well, and the plated cells were spiked with 1.0 mL of test compound stock solution. […] The test compound solution was then removed from each well and replaced with untreated dilution medium (i.e., serum-free INVITROGRO HI Medium and TORPEDO Antibiotic Mix), initializing the stability determination. The HepaRG plate was once more incubated at 37 °C under 5% CO2 atmosphere over the desired time course (nine data points/compound), and sample preparation and analysis were handled in identical fashion to cellular uptake experiments.

[3] = tested on: HIV-1 subtype C strain MJ4; assay: Single-cycle non-replicating HIV pseudoviral luciferase assay in HEK293T cells; conditions: Human immunodeficiency virus 1, HEK-293T, read-out: HIV IC50
Experimental: (§6) Second, HIV IC50 and cellular CC50 were determined with a pseudoviral, whole (HEK293T) cell, nonreplicative HIV assay, using the HIV-1 subtype C strain MJ4 (refer to Experimental Methods). To account for the unique amphiphilic properties of TXL and the novel HTP-based prodrugs, all compounds were formulated in a human serum albumin (HSA) solution (5:1 drug:protein).
(§7) Assessment of cytotoxicity and antiviral activity of all final compounds in vitro was conducted according to previously reported procedures.[39] In summary, human embryonic kidney (HEK293T) cells maintained in high glucose (25 mM), Dulbecco’s modified Eagle’s medium (DMEM) supplemented with fetal bovine serum (10%), sodium pyruvate (1 mM), L-glutamine (2 mM), HEPES (25 mM), and gentamicin (50 μg/mL) were used for determinations. The cells were maintained in an incubator at 37 °C under 5% CO2 in a humidified atmosphere. For both cytotoxicity and antiviral screening, all compounds were evaluated in duplicate in at least two independent experiments. All final compounds were formulated with human serum albumin (HSA, 5:1 compound to HSA molar ratio) and subsequently diluted with complete DMEM to 200 μM. Fifty microliters of test compound serial dilutions (3-fold) were prepared in 96-well culture plates, after which 50 μL of HEK293T cells (2 × 10^4 cells/well) was added. […] Cytotoxicity was then assessed by quantifying cell viability using the CellTiter 96 Aqueous One Solution Cell Proliferation Assay (Promega, Madison, WI) or resazurin sodium salt (cat# R7017, Merck, Darmstadt, Germany).[61] […] Antiviral activity was then assessed using a single-cycle, nonreplicating, envelope deleted HIV pseudoviral in vitro assay.[62],[63] The assay relies on the introduction of the firefly luciferase gene into HEK293T cells through infection with HIV-like viral particles, containing Reverse Transcriptase (RT) and Integrase (IN) from the HIV-1 subtype C strain MJ4.[64] The expression of the luciferase in the cells is directly proportional to the level of infection by the HIV-like viral particles and can be used to assess the inhibition of HIV-1 RT and IN. To evaluate anti-HIV activity, 3-fold serial dilutions of all final compounds were prepared in 50 μL over the noncytotoxic concentration range (as determined from the cytotoxicity screens described above) in 96-well culture plates. HEK293T cells (2 × 10^4 cells/well) and HIV-like viral particles, standardized to produce a luminescence signal of 1 × 10^6 relative light units (RLUs) in the growth medium only control, were combined, and 50 μL was added to the wells containing serially diluted test compounds. […] The expression of luciferase was subsequently quantified by adding 100 μL of the Bright-Glo Luciferase Assay substrate (Promega, Madison, WI) to each well of the 96-well plates. After incubation at rt for 3 min, luminescence was quantified on the GloMax Explorer Multimode Microplate Reader (Promega, Madison, WI).

[4] = Mouse plasma pharmacokinetics after oral dose; type: in vivo, male C57BL/6 mice
Experimental: as §1, §2, §3, §4, §5

[5] = tested on: HEK293T cells; assay: Cellular cytotoxicity (cell viability, CellTiter 96 or resazurin); conditions: HEK293T cells, 48 h, compounds formulated with HSA (5:1)
Experimental: as §6, §7

[6] = Mouse tissue (liver, kidney, brain) pharmacokinetics after oral dose; type: in vivo, male C57BL/6 mice; conditions: for AUC(0-t) at 24 h: read-out: AUC0–24h
Experimental: as §1, §2, §3, §4, §5

[7] = male, C57BL/6, mouse, iv, prodrug
[8] = male, C57BL/6, mouse, po, plasma, prodrug, p.o. 10 mg/kg
[9] = male, C57BL/6, mouse, brain, po, p.o. 10 mg/kg, read-out: mean prodrug concentration in brain
[10] = male, C57BL/6, mouse, kidney, po, p.o. 10 mg/kg, read-out: mean prodrug concentration in kidney
[11] = male, C57BL/6, mouse, liver, po, p.o. 10 mg/kg, read-out: mean prodrug concentration in liver
[12] = male, C57BL/6, mouse, po, brain, prodrug, p.o. 10 mg/kg
[13] = male, C57BL/6, mouse, po, kidney, prodrug, p.o. 10 mg/kg
[14] = male, C57BL/6, mouse, po, liver, prodrug, p.o. 10 mg/kg

Q: Which “k (terminal elimination rate constant)” value ([1]; 3 mg/kg) does the source give for `C[C@H](Cn1cnc2c(N)ncnc21)OCP(=O)(O)OCCCSCCCCCCCCCCCCC1CCCCC1.N` [16h] here?
A: 0.5743 and 0.574

Q: What about the Vd at 8 h ([1]; male, C57BL/6, mouse, iv) of the same compound?
A: 8.97 L/kg

Q: What about the clearance ([1]; male, C57BL/6, mouse, iv) of the same compound?
A: 5.15 L/h/kg

Q: And the half-life at 8 h ([1]; male, C57BL/6, mouse, iv)?
A: 1.21 h

Q: What about the concentration at 0.1 h ([1]; male, C57BL/6, mouse, iv, 0.1 h, read-out: mean prodrug concentration in plasma) of the same compound?
A: 2.38 µg/mL

Q: What about the concentration at 0.25 h ([1]; male, C57BL/6, mouse, iv, 0.25 h, read-out: mean prodrug concentration in plasma) of the same compound?
A: 0.522 µg/mL

Q: What about the concentration at 0.5 h ([1]; male, C57BL/6, mouse, iv, 0.5 h, read-out: mean prodrug concentration in plasma) of the same compound?
A: 0.406 µg/mL

Q: And the concentration at 1 h ([1]; male, C57BL/6, mouse, iv, 1 h, read-out: mean prodrug concentration in plasma)?
A: 0.127 µg/mL

Q: And the concentration at 2 h ([1]; male, C57BL/6, mouse, iv, 2 h, read-out: mean prodrug concentration in plasma)?
A: 0.0174 µg/mL

Q: What about the concentration at 4 h ([1]; male, C57BL/6, mouse, iv, 4 h, read-out: mean prodrug concentration in plasma) of the same compound?
A: 0.00898 µg/mL

Q: And the concentration at 6 h ([1]; male, C57BL/6, mouse, iv, 6 h, read-out: mean prodrug concentration in plasma)?
A: 0.00365 µg/mL

Q: And the concentration at 8 h ([1]; male, C57BL/6, mouse, iv, 8 h, read-out: mean prodrug concentration in plasma)?
A: 0.00141 µg/mL

Q: And the Cmax at 8 h [1, 7]?
A: 2.38 µg/mL

Q: What about the Tmax at 8 h [1, 7] of the same compound?
A: 6 min

Q: And the AUC(0-t) at 8 h ([1]; male, C57BL/6, mouse, iv, prodrug, read-out: AUC0–8h)?
A: 0.583 µg·h/mL

Q: And the “HepaRG t1/2” value ([2]; after 3 h loading at 20 μM, 37 °C)?
A: 1.18 ± 0.0067 h

Q: And the “HepaRG Clint,u” value ([2]; calculated from cellular t1/2)?
A: 17.8 μL/min/million cells

Q: And the IC50 [3]?
A: 0.008 to 0.012 µM

Q: What about the bioavailability ([4]; male, C57BL/6, mouse, plasma, oral, p.o. 10 mg/kg vs i.v. 3 mg/kg, read-out: %F (oral bioavailability)) of the same compound?
A: 55%

Q: What about the bioavailability at 24 h ([4]; male, C57BL/6, mouse, plasma, po, p.o. 10 mg/kg vs i.v. 3 mg/kg, read-out: %F (oral bioavailability)) of the same compound?
A: 54.9%

Q: And the concentration at 0.25 h ([4]; male, C57BL/6, mouse, plasma, po, p.o. 10 mg/kg, 0.25 h, read-out: mean prodrug concentration in plasma)?
A: 0.0489 µg/mL

Q: And the concentration at 0.5 h ([4]; male, C57BL/6, mouse, plasma, po, p.o. 10 mg/kg, 0.5 h, read-out: mean prodrug concentration in plasma)?
A: 0.0791 µg/mL

Q: What about the concentration at 1 h ([4]; male, C57BL/6, mouse, plasma, po, p.o. 10 mg/kg, 1 h, read-out: mean prodrug concentration in plasma) of the same compound?
A: 0.14 µg/mL

Q: What about the concentration at 2 h ([4]; male, C57BL/6, mouse, plasma, po, p.o. 10 mg/kg, 2 h, read-out: mean prodrug concentration in plasma) of the same compound?
A: 0.195 µg/mL

Q: And the concentration at 4 h ([4]; male, C57BL/6, mouse, plasma, po, p.o. 10 mg/kg, 4 h, read-out: mean prodrug concentration in plasma)?
A: 0.0592 µg/mL

Q: And the concentration at 8 h ([4]; male, C57BL/6, mouse, plasma, po, p.o. 10 mg/kg, 8 h, read-out: mean prodrug concentration in plasma)?
A: 0.0361 µg/mL

Q: What about the concentration at 12 h ([4]; male, C57BL/6, mouse, plasma, po, p.o. 10 mg/kg, 12 h, read-out: mean prodrug concentration in plasma) of the same compound?
A: 0.0382 µg/mL

Q: What about the concentration at 24 h ([4]; male, C57BL/6, mouse, plasma, po, p.o. 10 mg/kg, 24 h, BLQ = below LLOQ (0.58 ng/mL 2a, 0.62 ng/mL 16g), read-out: mean prodrug concentration in plasma) of the same compound?
A: 0.00087 µg/mL

Q: What about the half-life ([4]; male, C57BL/6, mouse, po, plasma, p.o. 10 mg/kg) of the same compound?
A: 3.07 h

Q: And the Cmax at 24 h [4, 8]?
A: 0.195 µg/mL

Q: And the Tmax at 24 h [4, 8]?
A: 2 h

Q: And the AUC(0-t) at 24 h ([4]; male, C57BL/6, mouse, po, plasma, prodrug, p.o. 10 mg/kg, read-out: AUC0–24h)?
A: 1.07 µg·h/mL

Q: What about the “mean TFV concentration in plasma” value ([4]; p.o. 10 mg/kg of prodrug, 0.25 h, LLOQ 4.84 ng/mL) of the same compound?
A: BLQ

Q: And the Vd ([4]; plasma, p.o. 10 mg/kg)?
A: 22.8 L/kg

Q: What about the “k (terminal elimination rate constant)” value ([4]; plasma, p.o. 10 mg/kg, 10 mg/kg) of the same compound?
A: 0.2258 and 0.226

Q: And the CC50 [5]?
A: 47.5 ± 8.7 µM

Q: What about the “TFV in brain tissue” value ([6]; brain, 1, 4 and 24 h after p.o. 10 mg/kg of prodrug, LLOQ 4.84 ng/mL (9.67 for 16h)) of the same compound?
A: BLQ

Q: What about the concentration at 1 h [6, 9] of the same compound?
A: 0.0161 µg/mL

Q: And the concentration at 4 h [6, 9]?
A: 0.00839 µg/mL

Q: And the concentration at 1 h [6, 10]?
A: 0.279 µg/mL

Q: And the concentration at 4 h [6, 10]?
A: 0.795 µg/mL

Q: And the concentration at 24 h ([6]; male, C57BL/6, mouse, kidney, po, p.o. 10 mg/kg, 24 h, read-out: mean prodrug concentration in kidney)?
A: 0.123 µg/mL

Q: What about the concentration at 1 h [6, 11] of the same compound?
A: 1.54 µg/mL

Q: What about the concentration at 4 h [6, 11] of the same compound?
A: 2.15 µg/mL

Q: What about the concentration at 24 h ([6]; male, C57BL/6, mouse, liver, po, p.o. 10 mg/kg, 24 h, read-out: mean prodrug concentration in liver) of the same compound?
A: 0.0324 µg/mL

Q: What about the Cmax at 24 h [6, 12] of the same compound?
A: 0.0162 µg/mL

Q: And the Tmax at 24 h [6, 12]?
A: 1 h

Q: And the AUC(0-t) at 24 h [6, 12]?
A: 0.0368 µg·h/mL

Q: What about the Cmax at 24 h [6, 13] of the same compound?
A: 0.795 µg/mL

Q: What about the AUC(0-t) at 24 h [6, 13] of the same compound?
A: 10.8 µg·h/mL

Q: And the Cmax at 24 h [6, 14]?
A: 2.15 µg/mL

Q: And the AUC(0-t) at 24 h [6, 14]?
A: 27.3 µg·h/mL

Q: What about the “mean prodrug concentration in brain” value ([6]; p.o. 10 mg/kg, 24 h, BLQ = below limit of quantitation) of the same compound?
A: BLQ
